In patent US20010021514A1, “Luminescent metal-ligand complexes” (priority 1999, published 2001):
Read-outs that look alike come from different tables or passages of the source.

What was measured:
[1] = background statement on known luminophores; cited from earlier work
[2] = Photoluminescence properties of the probe (spectra, Stokes' shift, lifetime, extinction); format: physicochemical
Excerpt: Photoluminescence may be characterized by a number of parameters, including extinction coefficient, excitation and emission spectrum, Stokes' shift, luminescence lifetime, and quantum yield. An extinction coefficient is a wavelength-dependent measure of the absorbing power of a luminophore. An excitation spectrum is the dependence of emission intensity upon the excitation wavelength, measured at a single constant emission wavelength. An emission spectrum is the wavelength distribution of the emission, measured after excitation with a single constant excitation wavelength. A Stokes' shift is the difference in wavelengths between the maximum of the emission spectrum and the maximum of the absorption spectrum. A luminescence lifetime is the average time that a luminophore spends in the excited state prior to returning to the ground state. A quantum yield is the ratio of the number of photons emitted to the number of photons absorbed by a luminophore.

[3] = Intrinsic polarization from excitation polarization spectra in vitrified solution; format: physicochemical; conditions: for fundamental anisotropy r0: corresponding to the intrinsic polarization; for intrinsic polarization P0: excitation polarization spectra in vitrified solution (glycerol: water=6:4; −55° C.)
Excerpt: Aspects of the invention include the use of selected long-lifetime metal-ligand complexes in luminescence polarization assays. Here, as elsewhere in the application, polarization assays encompass any assays involving detection of polarized light, including steady-steady and time-resolved assays, and computation of polarization and anisotropy functions, among others. […] Here, the invention was used without limitation to monitor interactions between human serum albumin (HSA) and goat-anti-HSA (IgG) antibodies. The HSA was labeled with a ruthenium-ligand complex polarization probe, Sunnyvale Red™ (SVR™), as described elsewhere in this application. […] These values were determined by measuring the excitation polarization spectra in vitrified solution (glycerol: water=6:4; −55° C.).

| Compound | luminescence lifetime (general statement) [1] | Stokes' shift [2] | emission maximum [2] | excitation maximum [2] | luminescence lifetime [2] | excitation maximum ([2]; listed as SVR) | luminescence lifetime ([2]; listed as SVR) | extinction coefficient E(SVR) ([2]; used with A479 for dye concentration) | fundamental anisotropy r0 [3] | fundamental anisotropy r0 ([3]; listed as SVR) | intrinsic polarization P0 [3] | intrinsic polarization P0 ([3]; listed as SVR) |
| --- | --- | --- | --- | --- | --- | --- | --- | --- | --- | --- | --- | --- |
| O=C([O-])c1ccnc(-c2cc(C(=O)[O-])ccn2)c1.[Ru+2].c1ccc(-c2ccccn2)nc1.c1ccc(-c2ccccn2)nc1 [Ru(bpy)2dcbpy, ruthenium 2,2′-dibipyridyl 4,4′-dicarboxyl-2,2′-bipyridine] | roughly 400 nanoseconds | – | – | – | – | – | – | – | – | – | – | – |
| Ru(bpy)2(dacbpy)-ITC [Sunnyvale Red™] | – | ~200 nm | 670 nm | 488 nm | about 360 ns | 487 nm | 360 ns | ~15,000 | about 0.28 | 0.27 | about 0.37 | 0.36 |
